The structures appear in SMILES notation. Activity calls are given as the source filed them. The calls are words filed in the database; no cut-off is given here.

For assay [1], the target named is T1, Ribonucleoside-diphosphate reductase RR1 (Homo sapiens, UniProt P23921+P31350+Q7LG56).
T1 sequence (P23921 whole entry): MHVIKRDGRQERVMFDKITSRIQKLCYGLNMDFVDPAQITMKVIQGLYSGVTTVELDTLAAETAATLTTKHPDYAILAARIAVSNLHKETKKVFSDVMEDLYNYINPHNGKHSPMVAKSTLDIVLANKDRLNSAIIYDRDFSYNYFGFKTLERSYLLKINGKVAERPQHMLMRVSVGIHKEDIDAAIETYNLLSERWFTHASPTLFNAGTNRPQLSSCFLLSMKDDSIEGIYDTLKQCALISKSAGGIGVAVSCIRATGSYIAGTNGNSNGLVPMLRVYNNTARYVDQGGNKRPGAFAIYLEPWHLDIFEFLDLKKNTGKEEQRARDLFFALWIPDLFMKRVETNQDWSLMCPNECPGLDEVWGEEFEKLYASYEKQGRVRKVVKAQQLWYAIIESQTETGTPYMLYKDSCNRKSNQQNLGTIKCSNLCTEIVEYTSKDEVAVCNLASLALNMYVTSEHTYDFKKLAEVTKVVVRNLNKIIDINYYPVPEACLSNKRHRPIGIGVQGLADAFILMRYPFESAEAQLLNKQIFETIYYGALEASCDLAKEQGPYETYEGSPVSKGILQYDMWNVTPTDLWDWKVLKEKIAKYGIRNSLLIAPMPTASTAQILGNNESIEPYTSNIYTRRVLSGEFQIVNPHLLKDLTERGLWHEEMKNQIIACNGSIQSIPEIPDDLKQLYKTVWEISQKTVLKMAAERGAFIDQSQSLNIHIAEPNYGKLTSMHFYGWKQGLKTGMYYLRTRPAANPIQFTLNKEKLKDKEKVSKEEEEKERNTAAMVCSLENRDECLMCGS
T1 sequence (Q7LG56 whole entry): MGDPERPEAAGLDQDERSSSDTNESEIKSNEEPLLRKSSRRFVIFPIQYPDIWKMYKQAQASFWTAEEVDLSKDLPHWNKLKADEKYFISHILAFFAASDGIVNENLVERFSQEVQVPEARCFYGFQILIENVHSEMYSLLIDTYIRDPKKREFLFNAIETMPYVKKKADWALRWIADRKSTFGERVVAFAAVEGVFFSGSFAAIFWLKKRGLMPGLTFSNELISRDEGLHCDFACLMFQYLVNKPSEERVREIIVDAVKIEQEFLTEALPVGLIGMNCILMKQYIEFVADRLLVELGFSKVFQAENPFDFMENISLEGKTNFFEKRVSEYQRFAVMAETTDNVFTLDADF
T1 sequence (P31350 whole entry): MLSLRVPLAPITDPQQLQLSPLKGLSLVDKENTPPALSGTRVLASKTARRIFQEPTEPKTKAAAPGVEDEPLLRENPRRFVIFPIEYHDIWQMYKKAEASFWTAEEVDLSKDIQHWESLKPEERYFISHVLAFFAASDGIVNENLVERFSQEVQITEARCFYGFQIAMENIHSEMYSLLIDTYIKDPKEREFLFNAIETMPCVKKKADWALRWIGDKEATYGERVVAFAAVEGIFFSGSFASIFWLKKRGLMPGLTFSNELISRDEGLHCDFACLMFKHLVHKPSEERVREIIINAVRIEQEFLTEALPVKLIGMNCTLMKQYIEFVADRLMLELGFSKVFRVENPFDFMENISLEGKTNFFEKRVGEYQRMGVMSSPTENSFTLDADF
The assay can be described thus: (§1) Inhibition of mammalian ribonucleotide reductase (mRR). Format: protein-complex assay.

In assay [2] the target is Ribonucleoside-diphosphate reductase RR1 (Homo sapiens) (UniProt P23921+Q7LG56+P31350). The assay is described as §1. Format: protein-complex assay.

Regarding `CC(C)CO[C@@H]1C[C@@H]2[C@@H]([C@@H](COC(=O)CCC3c4ccccc4-c4ccccc43)O1)N(CC(=O)N[C@@H](CC(=O)O)C(=O)N[C@@H](Cc1ccccc1)C(=O)O)C[C@H]2O`, in assay [1], the concentration for half-maximal inhibition (IC50) is 40 µM. That is a double-digit micromolar value.

Turning to `CC(C)CO[C@@H]1CC[C@H](N(C)CC(=O)N[C@@H](CC(=O)O)C(=O)N[C@@H](Cc2ccccc2)C(=O)O)[C@@H](COC(=O)CCC2c3ccccc3-c3ccccc32)O1`, the outcome in assay [2] was inactive.

Take `CC(C)CO[C@@H]1C[C@@H]2[C@@H]([C@@H](COC(=O)CCc3ccccc3)O1)N(CC(=O)N[C@@H](CC(=O)O)C(=O)N[C@@H](Cc1ccccc1)C(=O)O)C[C@H]2O`: the outcome in assay [2] was Active.

As to `CC(C)CO[C@@H]1CC[C@H](N(C)CC(=O)N[C@@H](CC(=O)O)C(=O)N[C@@H](Cc2ccccc2)C(=O)O)[C@@H](COC(=O)CCc2ccccc2)O1`, the result in assay [2] was inactive.

With `CC(C)CO[C@@H]1C[C@@H]2[C@@H]([C@@H](COC(=O)COc3ccc4ccccc4c3)O1)N(CC(=O)N[C@@H](CC(=O)O)C(=O)N[C@@H](Cc1ccccc1)C(=O)O)C[C@H]2O`, the result in assay [2] was inactive.

(Values after ChEMBL document CHEMBL1141205, “Design, synthesis, and evaluation of octahydropyranopyrrole-based inhibitors of mammalian ribonucleotide reductase” (Bioorg Med Chem Lett, 2005).)
